The record followed here is ChEMBL document CHEMBL1201862, “PubChem BioAssay data set” (2004).

Among the test systems are 786-0; Malme-3M; M14; SF-268; NCI-H460; OVCAR-3; HL-60; HCC 2998; RPMI-8226; HOP-92; CCRF-CEM; UACC-257; SK-MEL-5; SK-MEL-28; HOP-62; OVCAR-5; U-251; SK-OV-3.
Experiment in all cases: inhibition of tumour cell growth, NCI panel, 48 h

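A five-concentration, 48-hour dose response in 96-well plates underlies each endpoint, interpolated linearly between surrounding concentrations. GI50: concentration for 50% inhibition of growth.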 Activity calls are given as the source filed them. No stated cut-off is given here; in the data, active = GI50 up to about 1.1 µM and inactive = higher. Where only a bound is given, the exact number is not on record here.

Take `NC(=S)N/N=C(/CC(=O)c1ccc([N+](=O)[O-])cc1)C(=O)Nc1ncc([N+](=O)[O-])s1`: the GI50 with 786-0, in the test with Malme-3M, in the test with M14, in the test with SF-268, with NCI-H460 and with OVCAR-3 was > 100 µM (inactive) in each case. The GI50 was 45.2 µM (inactive) in the test with HL-60; > 100 µM (inactive) in the test on HCC 2998; > 100 µM (inactive) in the test with RPMI-8226; > 100 µM (inactive) in the test with HOP-92; 82.4 µM (inactive) in the test on CCRF-CEM; > 100 µM (inactive) in the test on UACC-257. Besides, the GI50 in the test on SK-MEL-5, with SK-MEL-28, with HOP-62, in the test on OVCAR-5 and in the test on U-251 was > 100 µM (inactive) throughout.
`COc1ccc(CCCN2c3ccccc3Sc3ccccc32)cc1`: the GI50 with 786-0 was 35.1 µM (inactive); in the test with Malme-3M it was > 100 µM (inactive); with M14, > 100 µM (inactive); in the test with SF-268 it was > 100 µM (inactive); with NCI-H460, 99.5 µM (inactive); with HL-60, 41.3 µM (inactive). Moreover, the GI50 is > 100 µM (inactive) in the test with HCC 2998; 32.3 µM (inactive) with RPMI-8226; > 100 µM (inactive) with HOP-92; 51.2 µM (inactive) in the test on CCRF-CEM; > 100 µM (inactive) in the test with SK-OV-3; > 100 µM (inactive) in the test with UACC-257. The GI50 in the test on SK-MEL-5, in the test on SK-MEL-28, in the test on HOP-62, in the test with OVCAR-5 and with U-251 was > 100 µM (inactive) throughout.
Regarding `C1CCN(c2nsc(N3CCCCC3)n2)CC1`, the GI50 with 786-0 is > 100 µM (inactive); in the test on Malme-3M it was > 100 µM (inactive); in the test on M14, > 100 µM (inactive); with SF-268, > 100 µM (inactive); with NCI-H460, > 100 µM (inactive); in the test with HL-60, 92 µM (inactive). Also, the GI50 in the test with HCC 2998 was > 100 µM (inactive); in the test with RPMI-8226, 87.3 µM (inactive); in the test on HOP-92, 97.1 µM (inactive); in the test on CCRF-CEM, > 100 µM (inactive); with SK-OV-3, > 100 µM (inactive); with UACC-257, > 100 µM (inactive). The GI50 with SK-MEL-5, in the test with SK-MEL-28, with HOP-62, in the test on OVCAR-5 and in the test with U-251 was > 100 µM (inactive) in each case.
Regarding `Cn1c2c(c3ccccc31)C1C(=O)N(c3ccccc3)C(=O)C1CC2` (centres undefined), the GI50 in the test with 786-0 was > 303 µM (inactive); in the test with Malme-3M it was > 303 µM (inactive); in the test with SF-268 it was > 303 µM (inactive); in the test on NCI-H460, > 303 µM (inactive); with OVCAR-3, 123 µM (inactive); in the test with HL-60, > 303 µM (inactive). For the same molecule, the GI50 in the test on HCC 2998, with RPMI-8226, with HOP-92, in the test with CCRF-CEM, with SK-OV-3 and in the test with UACC-257 was > 303 µM (inactive) in each case. Moreover, the GI50 in the test on SK-MEL-5, with SK-MEL-28, in the test on HOP-62 and with U-251 was > 303 µM (inactive) throughout.
Turning to `COc1ccc(C2C(Cl)C(=O)N2NC(=O)Cc2ccccc2)cc1` (centres undefined), the GI50 with 786-0, with Malme-3M, with M14, with SF-268, with NCI-H460 and in the test with OVCAR-3 was > 100 µM (inactive) throughout. Moreover, the GI50 with HL-60, with HCC 2998, in the test on RPMI-8226, in the test on CCRF-CEM, in the test on SK-OV-3 and in the test on UACC-257 was > 100 µM (inactive) throughout. Also, the GI50 in the test on SK-MEL-5, with SK-MEL-28, in the test with HOP-62, in the test with OVCAR-5 and with U-251 was > 100 µM (inactive) throughout.
For `COC(=O)CC(=O)NCC1=CCC(=O)CC1`, the GI50 with 786-0, in the test with Malme-3M, with M14, with SF-268, with NCI-H460 and in the test with OVCAR-3 was > 100 µM (inactive) each time. The GI50 in the test with HL-60, in the test on HCC 2998, with RPMI-8226, in the test with HOP-92, in the test with CCRF-CEM and in the test with SK-OV-3 was > 100 µM (inactive) throughout. For the same molecule, the GI50 in the test with UACC-257, in the test with SK-MEL-5, in the test with SK-MEL-28, with HOP-62 and in the test on U-251 was > 100 µM (inactive) throughout.
Regarding `CC(C)N(C(=O)C1(C)CC1)C(C)C`, the GI50 in the test on 786-0, with Malme-3M, in the test on M14, in the test with SF-268, in the test with OVCAR-3 and in the test on HL-60 was > 100 µM (inactive) each time. The GI50 in the test with HCC 2998, with RPMI-8226, in the test with HOP-92, with CCRF-CEM, in the test with SK-OV-3 and in the test with UACC-257 was > 100 µM (inactive) in each case. Further, the GI50 with SK-MEL-5, in the test on SK-MEL-28, with HOP-62, in the test on OVCAR-5 and with U-251 was > 100 µM (inactive) in each case.
`N#Cc1ccc(C2OCC3CC=CCC3CO2)cc1` (centres undefined): the GI50 with 786-0 was > 100 µM (inactive); with Malme-3M, > 100 µM (inactive); in the test on M14 it was 52.2 µM (inactive); with SF-268, > 100 µM (inactive); in the test with NCI-H460, 68.7 µM (inactive); with OVCAR-3 it was 91 µM (inactive). Besides, the GI50 is 30.7 µM (inactive) in the test with HL-60; 59.4 µM (inactive) with HCC 2998; 42.2 µM (inactive) in the test on RPMI-8226; 44.7 µM (inactive) in the test with CCRF-CEM; > 100 µM (inactive) in the test on SK-OV-3; 42.7 µM (inactive) with UACC-257. For the same molecule, the GI50 is 21.1 µM (inactive) in the test with SK-MEL-5; 78.5 µM (inactive) in the test on SK-MEL-28; > 100 µM (inactive) in the test with HOP-62; 71.9 µM (inactive) in the test with OVCAR-5; 76.7 µM (inactive) in the test on U-251.
`Nc1nc(-c2ccccc2)cc(-c2cc(Cl)ccc2O)n1`: the GI50 in the test with 786-0 is 55 µM (inactive); in the test with Malme-3M, > 100 µM (inactive); in the test with M14, > 100 µM (inactive); in the test on SF-268, 49.4 µM (inactive); in the test with NCI-H460 it was 43.9 µM (inactive); in the test with OVCAR-3, 35.7 µM (inactive). In addition, the GI50 in the test with HL-60 is > 100 µM (inactive); with HCC 2998 it was > 100 µM (inactive); in the test with RPMI-8226 it was > 100 µM (inactive); in the test with HOP-92 it was > 100 µM (inactive); in the test on CCRF-CEM it was > 100 µM (inactive); with SK-OV-3, 34.2 µM (inactive). Besides, the GI50 with UACC-257 was > 100 µM (inactive); in the test on SK-MEL-28, > 100 µM (inactive); in the test with HOP-62 it was 29.1 µM (inactive); in the test on OVCAR-5 it was > 100 µM (inactive); in the test on U-251, 35.6 µM (inactive).
For the molecule `CC(=O)C1C(=O)NC(=O)C1=O` (centres undefined), the GI50 with 786-0, in the test with Malme-3M, in the test with M14, with SF-268, with NCI-H460 and in the test on OVCAR-3 was > 100 µM (inactive) throughout. Also, the GI50 in the test on HCC 2998, with RPMI-8226, with HOP-92, with SK-OV-3, in the test with UACC-257 and with SK-MEL-5 was > 100 µM (inactive) in each case. For the same molecule, the GI50 with SK-MEL-28, with HOP-62, in the test with OVCAR-5 and in the test with U-251 was > 100 µM (inactive) each time.
`CC1=C[C@H]2C[C@@]3(C)O[C@@H]([C@]4(C)CC[C@H]([C@@H](C)C(=O)O)OO4)CC3C(C)(C)[C@H]2CC1` (some centres undefined): the GI50 in the test on 786-0 is 3.15 µM (inactive); with Malme-3M it was 0.849 µM (active); in the test on M14, 1.44 µM (inactive); with SF-268, 2.17 µM (inactive); in the test on NCI-H460 it was 1.13 µM (inactive); in the test on OVCAR-3 it was 1.81 µM (inactive). The GI50 is 0.114 µM (active) in the test with HL-60; 1.04 µM (active) in the test with HCC 2998; 0.078 µM (active) with HOP-92; 1.68 µM (inactive) with UACC-257; 1.56 µM (inactive) in the test with SK-MEL-28; 2.22 µM (inactive) with HOP-62. Besides, the GI50 is 3.16 µM (inactive) in the test on OVCAR-5 and 1.65 µM (inactive) with U-251.
Consider `CCCCCCCCCCCCCC(=O)OCC1OC(=O)C(O)C1O` (centres undefined), for which the GI50 with 786-0, in the test with Malme-3M, with M14, with SF-268, in the test with OVCAR-3 and with HL-60 was > 100 µM (inactive) in each case. Moreover, the GI50 in the test with HCC 2998, in the test on RPMI-8226, in the test with HOP-92, in the test with CCRF-CEM, in the test with SK-OV-3 and in the test with UACC-257 was > 100 µM (inactive) each time. The GI50 in the test on SK-MEL-5, with SK-MEL-28, with HOP-62, in the test with OVCAR-5 and in the test with U-251 was > 100 µM (inactive) in each case.
